Measurements taken from patent US5445956A, “Recombinant soluble epoxide hydrolase” (The Regents of the University of California, priority 1993, dated 1995).

Key:
human sEH [1] = target: T1, human sEH (Homo sapiens, UniProt P34913); assay: Human soluble EH activity in lysates of Sf21 cells infected with recombinant AcNPV, TSO and CSO as substrates; type: biochemical; settings: for inhibition at 62.5 µM: preincubation of lysates from human sEH expressing cells with inhibitor (62.5 μM, Table II), read-out: inhibition of the hydrolysis of TSO and CSO
T1 construct: made in house; host or cells: Spodoptera frugiperda Sf21 cells infected with recombinant AcNPV (AchsEH1)
T1 sequence (P34913 1-555): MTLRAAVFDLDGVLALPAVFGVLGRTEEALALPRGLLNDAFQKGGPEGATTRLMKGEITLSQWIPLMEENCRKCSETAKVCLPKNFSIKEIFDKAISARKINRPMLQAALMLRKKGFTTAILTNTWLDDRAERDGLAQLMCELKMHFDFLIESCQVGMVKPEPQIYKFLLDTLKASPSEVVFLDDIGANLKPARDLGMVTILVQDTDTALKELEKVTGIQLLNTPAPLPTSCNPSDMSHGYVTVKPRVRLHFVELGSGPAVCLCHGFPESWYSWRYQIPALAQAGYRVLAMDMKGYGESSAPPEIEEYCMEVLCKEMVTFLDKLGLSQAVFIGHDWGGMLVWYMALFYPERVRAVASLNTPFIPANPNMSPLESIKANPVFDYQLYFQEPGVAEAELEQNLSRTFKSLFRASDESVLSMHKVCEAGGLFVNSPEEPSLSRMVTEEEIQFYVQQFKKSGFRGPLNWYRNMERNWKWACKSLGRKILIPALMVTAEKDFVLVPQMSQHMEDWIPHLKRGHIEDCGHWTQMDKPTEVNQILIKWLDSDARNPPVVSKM
Description: To obtain recombinant baculovirus, Spodoptera frugiperda 21 (Sf21) insect cells are cotransfected with plasmid pAcUW21-hsEH plus linearized DNA (AcRP6-SC) of Autographa californica nuclear polyhedrosis virus (AcNPV). […] The resulting virus plaque is purified as described by O'Reilly, D. R., et al., in Baculovirus Expresssion Vectors. A Labortory Manual, p. […] Cultures of Sf21 cells are then infected with recombinant AcNPV containing the human sEH sequence or with control AcNPV. Uninfected cultures are also maintained. Cultures are maintained 4 to 5 days post infection before harvesting proteins. For extraction of proteins, cells are washed (three times in 90 mM NaHPO4 pH7.4) then lysed (in 90 mM NaHPO4 pH7.4, 1 mM EDTA, 1 mM phenylmethylsulfonyl fluoride) by 3 cycles of freeze thawing (dry ice ethanol and 37° C. H2 O baths).
A., and B. D. Hammock in Arch. […] Biochem. Biophys.

[2] = tested on: sEH of various species (mouse, rabbit, primate); settings: Dietze et al. 1991, 1993, read-out: I50; cited from earlier work
sEH = settings: inhibits only very weakly other enzymes that catalyze hydrolysis or conjugation of epoxides; Mullin and Hammock 1982, Prestwich 1985; cited from earlier work
murine sEH = target: T2, murine sEH (Mus musculus, UniProt P34914); assay: Epoxide hydrolase activity (TSO partition assay) in extracts of COS-7 cells transfected with murine sEH expression vector; type: biochemical; settings: psEH-pJ3omega transfected COS-7 cells + t-ENPG 1 mM final concentration
T2 construct: A primer pair to amplify the entire coding region is; expressed in transfected cells; host or cells: COS-7
T2 sequence (P34914 1-554): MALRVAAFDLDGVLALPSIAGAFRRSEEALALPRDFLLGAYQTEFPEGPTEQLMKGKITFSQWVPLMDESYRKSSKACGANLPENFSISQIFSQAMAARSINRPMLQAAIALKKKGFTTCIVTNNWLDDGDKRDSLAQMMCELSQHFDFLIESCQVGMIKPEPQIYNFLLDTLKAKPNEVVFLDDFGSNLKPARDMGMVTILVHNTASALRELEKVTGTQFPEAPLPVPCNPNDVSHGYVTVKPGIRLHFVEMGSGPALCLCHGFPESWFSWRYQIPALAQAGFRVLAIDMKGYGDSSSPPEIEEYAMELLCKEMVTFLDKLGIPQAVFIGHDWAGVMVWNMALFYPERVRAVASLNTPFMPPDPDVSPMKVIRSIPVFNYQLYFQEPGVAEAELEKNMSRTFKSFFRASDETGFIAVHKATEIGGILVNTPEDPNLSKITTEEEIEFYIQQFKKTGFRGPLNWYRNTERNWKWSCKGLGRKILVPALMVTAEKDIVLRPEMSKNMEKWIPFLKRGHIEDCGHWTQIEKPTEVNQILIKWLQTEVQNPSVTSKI
Protocol: (§1) To detect soluble epoxide hydrolase activity or to monitor its relative purity, one uses the partition assay of Wixtrom, R. N., and B. D. Hammock in Biochemical Pharmacoloyt and Toxicology (Zakim, D., and Vessey, D. A., Eds), Vol. 1, pp. 1-93. Wiley, New York ([…]) with [^3 H]-trans-stilbene oxide ([^3 H]TSO) as substrate, incorporated herein by reference. In brief this assay entails: coincubating the enzyme with radiolabled substrate that is much more soluble in organic than aqueous solutions. Next, the enzyme substrate is extracted with organic solvent such that the substrate partitions into the organic phase but the more polar and water-soluble product (a vicinal diol) partitions to the aqueous phase. An aliquot of the aqueous phase is then analyzed for concentration of product by quantification of radioactivity. The substrate [^3 H]TSO is prepare by the method described by Gill, S. S., et al., in Anal. Biochem., 131:273-282 (1993) incorporated herein by reference.
cos-7 cells are grown as a monolayer culture in Dulbecco's modified Eagle's medium (ICN) containing 10% fetal calf serum (ICN) plus penicillin G (100 U/ml) and streptomycin sulfate (100 ug/ml). Cell transfections are mediated by lipofectin (Gibco) according to standard protocol. Approximately 1×10^6 cells are transfected in 100 mm dishes with 5 ug of murine sEH-pJ3omega, 5 ug pJ3omega vector control or a mock transfection control containing lipofectin only (60 ul/plate). All transfections except the mock transfection control contain 2.5 ug of the beta-galactosidase plasmid, pSV-beta-Gal (Promega) can be used as an internal positive control. After 36 hours, cells are washed 5 times with PBS and collected by scraping into 1.5 ml centrifuge tubes. The cells are then pelleted (12 k×g, 4° C., 30 seconds), resuspended in 150 ul of lysis buffer (40 mM tris, pH 8.0, 150 mM NaCl, 0.2 mM PMSF, 1 mM EDTA) and lysed by 3 cycles of freezing and thawing. The cells are again centrifuged and the supernatant used for enzyme assays and protein determination. […]

[3] = tested on: basal sEH activity of COS-7 cells; assay: Basal epoxide hydrolase activity (TSO) in extracts of vector-control or mock transfected COS-7 cells; type: biochemical, monkey
Protocol: as §1
cos-7 cells are grown as a monolayer culture in Dulbecco's modified Eagle's medium (ICN) containing 10% fetal calf serum (ICN) plus penicillin G (100 U/ml) and streptomycin sulfate (100 ug/ml). Cell transfections are mediated by lipofectin (Gibco) according to standard protocol. Approximately 1×10^6 cells are transfected in 100 mm dishes with 5 ug of murine sEH-pJ3omega, 5 ug pJ3omega vector control or a mock transfection control containing lipofectin only (60 ul/plate). All transfections except the mock transfection control contain 2.5 ug of the beta-galactosidase plasmid, pSV-beta-Gal (Promega) can be used as an internal positive control. After 36 hours, cells are washed 5 times with PBS and collected by scraping into 1.5 ml centrifuge tubes. The cells are then pelleted (12 k×g, 4° C., 30 seconds), resuspended in 150 ul of lysis buffer (40 mM tris, pH 8.0, 150 mM NaCl, 0.2 mM PMSF, 1 mM EDTA) and lysed by 3 cycles of freezing and thawing. The cells are again centrifuged and the supernatant used for enzyme assays and protein determination. Beta-galactosidase is assayed as described (Sambrook et al., 1989). sEH activity is assayed using TSO as described by the method of Wixtrom, R. N. and B. D. Hammock in Biochemical Pharmacology and Toxicology, (Zakim, D. and Vessey, D. A., ed.) 1:1-93 (1985).
The functional analysis of recombinant murine sEH expressed in COS-7 cells was performed following the methods described above. […] Transfected cells expressed approximately the same level of sEH activity as did mock transfected cells when 1 mM t-ENPG was included in the enzyme assay. […] The differences in specific activity among the experiments in Table I are most likely due to differences in cell density during transfections.
As well as detecting the transiently expressed sEH, the anti-rhesus-sEH antiserum also detected a protein that migrates identically with mouse sEH.

[4] = tested on: monkey and murine microsomal EH; settings: at 2 mM; cited from earlier work
soluble EH = settings: at 8 uM; cited from earlier work
human sEH [5] = target: T1, human sEH; assay: Heat lability of expressed human sEH; type: biochemical; settings: enzyme assay mixture preincubated 15 min at 65° C.
[6] = AchsEH1 infected Sf21 lysate, inhibitor 62.5 μM, ND = no activity detected where 0.65 was distinguishable above background

In the case of `O=[N+]([O-])c1ccc([C@H]2O[C@@H]2CO)cc1` [RRNPG, (2R,3R)-3-(4-nitrophenyl) glycidol], the “specific activity remaining with inhibitor, substrate CSO” value (human sEH [1]; [6]) is given as 19.8 (1.26) nmoles TSO or CSO converted to, the inhibition at 62.5 µM (human sEH [1]) is given as 39% and the IC50 [2] is given as over 690 µM.

For `O=[N+]([O-])c1ccc([C@@H]2O[C@H]2CO)cc1` [SSNPG, (2S,3S)-3-(4-nitrophenyl) glycidol], the “specific activity remaining with inhibitor, substrate TSO” value (human sEH [1]; [6]) is given as 5.73 (0.56) nmoles TSO or CSO converted to, the inhibition at 62.5 µM (human sEH [1]) is given as 73% and the IC50 [2] is given as 1 to 10 µM.

In the case of `O=C(c1ccccc1)C1OC1c1ccc(F)cc1` (centres unmarked) [4FCO, 4-fluorochalcone oxide], the inhibition at 62.5 µM (human sEH [1]) is listed as 100% and the “selectivity for sEH” value (sEH) is listed as “very selective inhibitor of sEH”.

For `O=[N+]([O-])c1ccc([C@@H]2O[C@H]2CO)cc1` [t-ENPG, trans2(S),3(S)-epoxy-3-(4-nitrophenyl) glycidol], the “Epoxide hydrolase activity (±S.D.) remaining with inhibitor” value (murine sEH; Experiment 1) was 76 ± 20 pmol·min/mg, the “Epoxide hydrolase activity (±S.D.) remaining with inhibitor” value (murine sEH; Experiment 2) was 109 ± 4 pmol·min/mg and the “Epoxide hydrolase activity (±S.D.) remaining with inhibitor” value (murine sEH; Experiment 3) was 134 ± 6 pmol·min/mg. The “Epoxide hydrolase activity (±S.D.) remaining with inhibitor” value ([3]; Experiment 1, mock transfected COS-7 cells + t-ENPG 1 mM) was 74 ± 6 pmol·min/mg, the “Epoxide hydrolase activity (±S.D.) remaining with inhibitor” value ([3]; Experiment 1, pJ3omega vector control transfected COS-7 cells + t-ENPG 1 mM) was 69 ± 6 pmol·min/mg and the “Epoxide hydrolase activity (±S.D.) remaining with inhibitor” value ([3]; Experiment 2, mock transfected COS-7 cells + t-ENPG 1 mM) was 106 ± 5 pmol·min/mg. The “Epoxide hydrolase activity (±S.D.) remaining with inhibitor” value ([3]; Experiment 2, pJ3omega vector control transfected COS-7 cells + t-ENPG 1 mM) was 97 ± 4 pmol·min/mg, the “Epoxide hydrolase activity (±S.D.) remaining with inhibitor” value ([3]; Experiment 3, mock transfected COS-7 cells + t-ENPG 1 mM) was 88 ± 2 pmol·min/mg and the “Epoxide hydrolase activity (±S.D.) remaining with inhibitor” value ([3]; Experiment 3, pJ3omega vector control transfected COS-7 cells + t-ENPG 1 mM) was 113 ± 8 pmol·min/mg. For the same molecule, the “inhibition of microsomal EH” value [4] was at most 23% and the “inhibition of soluble EH” value (soluble EH) was at least 50%.

B1: expressed human sEH: recombinant human soluble epoxide hydrolase (Seq ID No.2) expressed in Sf21 cells (protein)
chain: MTLRGAVFDLDGVLALPAVFGVLGRTEEALALPRGLLNDAFQKGGPEGATTRLMKGEITLSQWIPLMEENCRKCSETAKVCLPKNFSIKEIFDKAISARKINRPMLQAALMLRKKGFTTAILTNTWLDDRAERDGLAQLMCELKMHFDFLIESCQVGMVKPEPQIYKFLLDTLKASPSEVVFLDDIGANLKPARDLGMVTILVQDTDTALKELEKVTGIQLLNTPAPLPTSCNPSDMSHGYVTVKPRVRLHFVELGWPAVCLCHGFPESWYSWRYQIPALAQAGYRVLAMDMKGYGESSAPPEIEEYCMEVLCKEMVTFLDKLGLSQAVFIGHDWGGMLVWYMALFYPERVRAVASLNTPFIPANPNMSPLESIKANPVFDYQLYFQEPGVAEAELEQNLSRTFKSLFRASDESVLSMHKVCEAGGLFVNSPEEPSLSRMVTEEEIQFYVQQFKKSGFRGPLNWYRNMERNWKWACKSLGRKILIPALMVTAEKDFVLVPQMSQHMEDWIPHLKRGHIEDCGHWTQMDKPTEVNQILIKWLDSDARNPPVVSKM
With B1 the “inhibition of activity by heat (heat lability)” value (human sEH [5]) was 100%.
